From PubChem BioAssay (NCI) come the findings set out here.

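The compound was tested at five concentrations on cells cultured in 96-well plates, with a 48-hour exposure period. TGI is the concentration that stops growth completely.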

Test systems include 786-0 renal; HL-60(TB) leukemia; IGROV1 ovarian; MALME-3M melanoma; MCF7 breast; MDA-N; NCI-H23 lung; OVCAR-3 ovarian; SW-620 colon; T-47D breast; U251 CNS.
Holding throughout (assay): growth of human tumour cells (NCI), 48 h

`COc1ccc2nc(-c3ccc(O)cc3)sc2c1`: the TGI with 786-0 renal was 29.1 µM; in the experiment with HL-60(TB) leukemia it was 53.5 µM; with IGROV1 ovarian, 36.2 µM; in the experiment with MALME-3M melanoma, 51.6 µM; with MCF7 breast it was over 100 µM; in the experiment on MDA-N, 50.8 µM. Further, the TGI in the experiment on NCI-H23 lung was determined as 43.6 µM; in the experiment with OVCAR-3 ovarian, 36.2 µM; in the experiment with SW-620 colon, 44.5 µM; in the experiment with T-47D breast it was 36.7 µM; in the experiment with U251 CNS it was 36.2 µM.

As for `O=C1C(c2c(O)[nH]c3ccc(Br)cc23)=Nc2ccccc21`, the TGI in the experiment on 786-0 renal was 5.75 µM; in the experiment on HL-60(TB) leukemia it was over 100 µM; in the experiment with IGROV1 ovarian it was 13 µM; in the experiment with MALME-3M melanoma it was 44.4 µM; with MCF7 breast, 3.72 µM; in the experiment with MDA-N, 34.8 µM. The TGI is 40.1 µM in the experiment on NCI-H23 lung; 45.8 µM in the experiment on OVCAR-3 ovarian; over 100 µM in the experiment with SW-620 colon; 64.2 µM in the experiment on T-47D breast; 26.2 µM with U251 CNS.

For the molecule `OCCNCNc1nc(NCNCCO)nc(N(CNCCO)CNCCO)n1`, the TGI is 36.5 µM in the experiment on 786-0 renal; 63.8 µM in the experiment on HL-60(TB) leukemia; 49.4 µM in the experiment with IGROV1 ovarian; 33.2 µM with MALME-3M melanoma; over 78.9 µM in the experiment with MCF7 breast; 38.4 µM with MDA-N. Besides, the TGI in the experiment on NCI-H23 lung is 46.1 µM; in the experiment on OVCAR-3 ovarian, 58.7 µM; with SW-620 colon, over 54 µM; with T-47D breast, 61.1 µM; in the experiment on U251 CNS, 43.7 µM.

In the case of `O=C1CSC(c2cccc([N+](=O)[O-])c2)N1c1ccc(-n2c(-c3ccccc3)nc3ccccc3c2=O)cc1` (configuration not stated), the TGI in the experiment with 786-0 renal, with HL-60(TB) leukemia, in the experiment on IGROV1 ovarian, in the experiment with MALME-3M melanoma, in the experiment with MCF7 breast and with MDA-N was over 100 µM throughout. Besides, the TGI in the experiment with NCI-H23 lung, with OVCAR-3 ovarian, in the experiment on SW-620 colon, in the experiment on T-47D breast and in the experiment with U251 CNS was over 100 µM each time.

On to `CC(C)(C)OC(=O)N1C(c2cccnc2)=CC[C@H]2C3CC=C(c4cccnc4)[C@@]3(C)CC[C@@H]21` (some centres not stated), for which the TGI in the experiment on 786-0 renal amounted to 16.4 µM; with HL-60(TB) leukemia, 14 µM; with IGROV1 ovarian, 16.4 µM; with MALME-3M melanoma, 13.3 µM; in the experiment on MCF7 breast, 11.1 µM; in the experiment on MDA-N it was 9.2 µM. The TGI with NCI-H23 lung was 12.8 µM; with OVCAR-3 ovarian, 14.2 µM; in the experiment with SW-620 colon, 15.8 µM; in the experiment with T-47D breast it was 29.8 µM; in the experiment with U251 CNS, 12 µM.

Regarding `CC(=O)OCc1ccc2oc(=O)c(C(=O)Oc3ccccc3)cc2c1`, the TGI in the experiment with 786-0 renal is 45.8 µM; with HL-60(TB) leukemia it was over 100 µM; in the experiment on IGROV1 ovarian it was over 100 µM; in the experiment on MALME-3M melanoma, over 100 µM; in the experiment on MCF7 breast it was over 100 µM; in the experiment on MDA-N, over 100 µM. Moreover, the TGI was over 100 µM in the experiment with NCI-H23 lung; over 100 µM with OVCAR-3 ovarian; over 100 µM in the experiment on SW-620 colon; 37.3 µM in the experiment with T-47D breast; over 100 µM in the experiment on U251 CNS.

Turning to `CCCCCCCCCCCCCCCCCCN(C)CC(COP(=O)([O-])OCC[N+](C)(C)C)OC` (configuration not stated), the TGI in the experiment with 786-0 renal was 14.7 µM; with HL-60(TB) leukemia, 11.1 µM; in the experiment on IGROV1 ovarian, 6.63 µM; in the experiment on MALME-3M melanoma it was 43.3 µM; with MCF7 breast it was over 62.3 µM; in the experiment with MDA-N it was over 100 µM. Moreover, the TGI is 49.3 µM in the experiment with NCI-H23 lung; 51.6 µM in the experiment on OVCAR-3 ovarian; 47 µM in the experiment with SW-620 colon; over 100 µM in the experiment with T-47D breast; 10.1 µM in the experiment on U251 CNS.

For `C=C(Br)CNC(=O)CCC(=O)NCC(=C)Br`, the TGI in the experiment with 786-0 renal, in the experiment with HL-60(TB) leukemia, with IGROV1 ovarian, in the experiment with MALME-3M melanoma, in the experiment on MCF7 breast and in the experiment with MDA-N was over 100 µM each time. Besides, the TGI in the experiment with NCI-H23 lung, in the experiment on OVCAR-3 ovarian, in the experiment with SW-620 colon, with T-47D breast and in the experiment on U251 CNS was over 100 µM each time.

Turning to `CCOC(=O)c1ccc(NCC#CCN2CCCCC2)cc1`, the TGI with 786-0 renal, in the experiment on HL-60(TB) leukemia, in the experiment with IGROV1 ovarian, in the experiment with MALME-3M melanoma, with MCF7 breast and in the experiment on MDA-N was over 100 µM each time. The TGI in the experiment with NCI-H23 lung, in the experiment with OVCAR-3 ovarian, in the experiment on SW-620 colon, in the experiment with T-47D breast and in the experiment with U251 CNS was over 100 µM in each case.

`C/C(=N\NC(=S)NCCCNC(=S)N/N=C(\C)c1ccccn1)c1ccccn1`: the TGI was 6.07 µM with 786-0 renal; over 30.2 µM in the experiment on HL-60(TB) leukemia; 37.4 µM in the experiment on IGROV1 ovarian; 17.5 µM with MALME-3M melanoma; over 50.6 µM in the experiment on MCF7 breast; over 100 µM in the experiment on MDA-N. Also, the TGI was over 54.4 µM in the experiment on NCI-H23 lung; 20.7 µM in the experiment with OVCAR-3 ovarian; over 100 µM with SW-620 colon; over 24.1 µM in the experiment on T-47D breast; over 47.1 µM with U251 CNS.

`NC(N)=Nc1ccc(CC(N)C(=O)O)cc1` (configuration not stated): the TGI in the experiment with 786-0 renal, with HL-60(TB) leukemia, in the experiment on IGROV1 ovarian, in the experiment with MALME-3M melanoma, with MCF7 breast and in the experiment on MDA-N was over 12.5 µM in each case. For the same molecule, the TGI in the experiment with NCI-H23 lung, in the experiment on OVCAR-3 ovarian, in the experiment with SW-620 colon, with T-47D breast and in the experiment with U251 CNS was over 12.5 µM throughout.

For `CC(C)/C(Cl)=N\OC(=O)Nc1cccc(Cl)c1`, the TGI with 786-0 renal was determined as 29.1 µM; in the experiment with HL-60(TB) leukemia, 3.3 µM; in the experiment on IGROV1 ovarian, 35 µM; in the experiment on MALME-3M melanoma, 24.1 µM; in the experiment with MCF7 breast, 32 µM; in the experiment with MDA-N, 28.6 µM. The TGI in the experiment on NCI-H23 lung was determined as 34 µM; in the experiment on OVCAR-3 ovarian, 10.8 µM; with SW-620 colon it was 9.83 µM; in the experiment on T-47D breast, 68.5 µM; with U251 CNS, 34.4 µM.
